ChEMBL document CHEMBL3808371, “Design, synthesis and biological evaluation of diaziridinyl quinone isoxazole hybrids” (Eur J Med Chem, 2016)
≈ marks a conversion by molar mass, not a printed value. Calls of active or inactive are those of the source. The calls are words filed in the database; no cut-off is given here.

Key:
[1] = test system: A549; experiment: Cytotoxicity against human A549 cells; format: functional, cell-based
[2] = Cytotoxicity against human PC3 cells; format: functional, cell-based; details: PC-3
[3] = test system: Candida albicans; experiment: Fungicidal activity against Candida albicans MTCC 7315 after 24 hrs by serial dilution method; format: functional; details: MTCC 7315, 24 h
[4] = test system: Pichia kudriavzevii; experiment: Antimicrobial activity against Candida krusei MTCC 3020 after 24 hrs by well diffusion method; format: functional; details: MTCC 3020, 24 h
[5] = Cytotoxicity against human PC3 cells after 72 hrs by XTT assay; format: functional, cell-based; details: PC-3, 72 h
[6] = test system: Candida albicans; experiment: Fungicidal activity against Candida albicans MTCC 3958 after 24 hrs by serial dilution method; format: functional; details: MTCC 3958, 24 h
[7] = test system: Staphylococcus aureus; experiment: Antibiofilm activity against Staphylococcus aureus MTCC 96 after 24 hrs by crystal violet staining based assay; format: functional, organism-based; details: MTCC 96, 24 h
[8] = test system: Candida albicans; experiment: Antimicrobial activity against Candida albicans MTCC 4748 after 24 hrs by well diffusion method; format: functional; details: MTCC 4748, 24 h
[9] = test system: Staphylococcus aureus; experiment: Antibiofilm activity against Staphylococcus aureus MLS16 MTCC 2940 after 24 hrs by crystal violet staining based assay; format: functional, organism-based; details: MLS16 MTCC 2940, 24 h
[10] = test system: Nakaseomyces glabratus; experiment: Antimicrobial activity against Candida glabrata MTCC 3019 after 24 hrs by well diffusion method; format: functional; details: MTCC 3019, 24 h
[11] = test system: Nakaseomyces glabratus; experiment: Fungicidal activity against Candida glabrata MTCC 3019 after 24 hrs by serial dilution method; format: functional; details: MTCC 3019, 24 h
[12] = test system: Pseudomonas aeruginosa; experiment: Antimicrobial activity against Pseudomonas aeruginosa MTCC 2453 after 24 hrs by well diffusion method; format: functional
[13] = test system: Candida albicans; experiment: Fungicidal activity against Candida albicans MTCC 3018 after 24 hrs by serial dilution method; format: functional; details: MTCC 3018, 24 h
[14] = test system: Raoultella planticola; experiment: Antimicrobial activity against Klebsiella planticola MTCC 530 after 24 hrs by well diffusion method; format: functional
[15] = test system: Staphylococcus aureus; experiment: Bactericidal activity against Staphylococcus aureus MTCC 96 after 24 hrs by serial dilution method; format: functional; details: MTCC 96, 24 h
[16] = test system: Bacillus subtilis; experiment: Antimicrobial activity against Bacillus subtilis MTCC 121 after 24 hrs by well diffusion method; format: functional
[17] = test system: Micrococcus luteus; experiment: Bactericidal activity against Micrococcus luteus MTCC 2470 after 24 hrs by serial dilution method; format: functional; details: MTCC 2470, 24 h
[18] = test system: Candida albicans; experiment: Fungicidal activity against Candida albicans MTCC 854 after 24 hrs by serial dilution method; format: functional; details: MTCC 854, 24 h
[19] = test system: Candida albicans; experiment: Fungicidal activity against Candida albicans MTCC 183 after 24 hrs by serial dilution method; format: functional; details: MTCC 183, 24 h
[20] = test system: Raoultella planticola; experiment: Antibiofilm activity against Klebsiella planticola MTCC 530 after 24 hrs by crystal violet staining based assay; format: functional, organism-based; details: MTCC 530, 24 h
[21] = test system: Candida albicans; experiment: Antimicrobial activity against Candida albicans MTCC 183 after 24 hrs by well diffusion method; format: functional; details: MTCC 183, 24 h
[22] = test system: Staphylococcus aureus; experiment: Antimicrobial activity against Staphylococcus aureus MLS16 MTCC 2940 after 24 hrs by well diffusion method; format: functional
[23] = test system: Candida albicans; experiment: Fungicidal activity against Candida albicans MTCC 1637 after 24 hrs by serial dilution method; format: functional; details: MTCC 1637, 24 h
[24] = test system: Staphylococcus aureus; experiment: Antimicrobial activity against Staphylococcus aureus MTCC 96 after 24 hrs by well diffusion method; format: functional
[25] = test system: Raoultella planticola; experiment: Bactericidal activity against Klebsiella planticola MTCC 530 after 24 hrs by serial dilution method; format: functional; details: MTCC 530, 24 h
[26] = test system: Candida parapsilosis; experiment: Fungicidal activity against Candida parapsilosis MTCC 1744 after 24 hrs by serial dilution method; format: functional; details: Lodderomyces parapsilosis, MTCC 1744, 24 h
[27] = test system: Candida albicans; experiment: Antimicrobial activity against Candida albicans MTCC 3958 after 24 hrs by well diffusion method; format: functional; details: MTCC 3958, 24 h
[28] = test system: Micrococcus luteus; experiment: Antibiofilm activity against Micrococcus luteus MTCC 2470 after 24 hrs by crystal violet staining based assay; format: functional, organism-based; details: MTCC 2470, 24 h
[29] = test system: Pichia kudriavzevii; experiment: Fungicidal activity against Candida krusei MTCC 3020 after 24 hrs by serial dilution method; format: functional; details: MTCC 3020, 24 h
[30] = test system: Candida albicans; experiment: Antimicrobial activity against Candida albicans MTCC 854 after 24 hrs by well diffusion method; format: functional; details: MTCC 854, 24 h
[31] = test system: Candida albicans; experiment: Antimicrobial activity against Candida albicans MTCC 7315 after 24 hrs by well diffusion method; format: functional; details: MTCC 7315, 24 h
[32] = test system: Bacillus subtilis; experiment: Bactericidal activity against Bacillus subtilis MTCC 121 after 24 hrs by serial dilution method; format: functional; details: MTCC 121, 24 h
[33] = test system: [Candida] aaseri; experiment: Antimicrobial activity against Candida aaseri MTCC 1962 after 24 hrs by well diffusion method; format: functional; details: Yamadazyma aaseri, MTCC 1962, 24 h
[34] = test system: Staphylococcus aureus; experiment: Bactericidal activity against Staphylococcus aureus MLS16 MTCC 2940 after 24 hrs by serial dilution method; format: functional; details: MLS16 MTCC 2940, 24 h
[35] = test system: Candida albicans; experiment: Antimicrobial activity against Candida albicans MTCC 227 after 24 hrs by well diffusion method; format: functional; details: MTCC 227, 24 h
[36] = test system: Candida albicans; experiment: Antimicrobial activity against Candida albicans MTCC 3017 after 24 hrs by well diffusion method; format: functional; details: MTCC 3017, 24 h
[37] = test system: Pichia sporocuriosa; experiment: Antimicrobial activity against Issatchenkia hanoiensis MTCC 4755 after 24 hrs by well diffusion method; format: functional; details: MTCC 4755, 24 h
[38] = test system: Candida albicans; experiment: Antimicrobial activity against Candida albicans MTCC 1637 after 24 hrs by well diffusion method; format: functional; details: MTCC 1637, 24 h
[39] = test system: Micrococcus luteus; experiment: Antimicrobial activity against Micrococcus luteus MTCC 2470 after 24 hrs by well diffusion method; format: functional
[40] = test system: Candida albicans; experiment: Fungicidal activity against Candida albicans MTCC 4748 after 24 hrs by serial dilution method; format: functional; details: MTCC 4748, 24 h
[41] = test system: Bacillus subtilis; experiment: Antibiofilm activity against Bacillus subtilis MTCC 121 after 24 hrs by crystal violet staining based assay; format: functional, organism-based; details: MTCC 121, 24 h
[42] = test system: [Candida] aaseri; experiment: Fungicidal activity against Candida aaseri MTCC 1962 after 24 hrs by serial dilution method; format: functional; details: Yamadazyma aaseri, MTCC 1962, 24 h
[43] = test system: A549; experiment: Cytotoxicity against human A549 cells after 72 hrs by XTT assay; format: functional, cell-based; details: A549, 72 h
[44] = test system: Pichia sporocuriosa; experiment: Fungicidal activity against Issatchenkia hanoiensis MTCC 4755 after 24 hrs by serial dilution method; format: functional; details: MTCC 4755, 24 h
[45] = test system: Candida albicans; experiment: Fungicidal activity against Candida albicans MTCC 227 after 24 hrs by serial dilution method; format: functional; details: MTCC 227, 24 h
[46] = test system: Candida parapsilosis; experiment: Antimicrobial activity against Candida parapsilosis MTCC 1744 after 24 hrs by well diffusion method; format: functional; details: Lodderomyces parapsilosis, MTCC 1744, 24 h
[47] = test system: Candida albicans; experiment: Antimicrobial activity against Candida albicans MTCC 3018 after 24 hrs by well diffusion method; format: functional; details: MTCC 3018, 24 h
[48] = test system: Candida albicans; experiment: Fungicidal activity against Candida albicans MTCC 3017 after 24 hrs by serial dilution method; format: functional; details: MTCC 3017, 24 h
[49] = test system: Escherichia coli; experiment: Antimicrobial activity against Escherichia coli MTCC 739 after 24 hrs by well diffusion method; format: functional

SMILES: COc1ccc(C[C@H](N)C(=O)N[C@H]2[C@@H](O)[C@H](n3cnc4c(N(C)C)ncnc43)O[C@@H]2CO)cc1 [PUROMYCIN]
- IC50 [1]: 600 nM
- IC50 [2]: 700 nM

SMILES: O=C1C=C(N2CC2)C(=O)C(c2cc(-c3ccc(C(=O)N4CCOCC4)s3)on2)=C1N1CC1
- MFC [3]: 125 µg/mL (≈ 276 µM)
- MIC [4]: 7.8 µg/mL (≈ 17.2 µM)
- IC50 [5]: 1400 nM
- MFC [6]: 62.5 µg/mL (≈ 138 µM)
- IC50 [7]: 2500 nM
- MIC [8]: 31.2 µg/mL (≈ 69 µM)
- IC50 [9]: 1900 nM
- MIC [10]: 31.2 µg/mL (≈ 69 µM)
- MFC [11]: 125 µg/mL (≈ 276 µM)
- MIC ([12]; MTCC 2453, 24 h): > 125 µg/mL
- MFC [13]: 125 µg/mL (≈ 276 µM)
- MIC ([14]; MTCC 530, 24 h): 7.8 µg/mL (≈ 17.2 µM)
- MBC [15]: 7.8 µg/mL (≈ 17.2 µM)
- MIC ([16]; MTCC 121, 24 h): 3.9 µg/mL (≈ 8.62 µM)
- MBC [17]: 31.2 µg/mL (≈ 69 µM)
- MFC [18]: 15.6 µg/mL (≈ 34.5 µM)
- MFC [19]: 31.2 µg/mL (≈ 69 µM)
- IC50 [20]: 5100 nM
- MIC [21]: 15.6 µg/mL (≈ 34.5 µM)
- MIC ([22]; MLS16 MTCC 2940, 24 h): 3.9 µg/mL (≈ 8.62 µM)
- MFC [23]: 62.5 µg/mL (≈ 138 µM)
- MIC ([24]; MTCC 96, 24 h): 3.9 µg/mL (≈ 8.62 µM)
- MBC [25]: 15.6 µg/mL (≈ 34.5 µM)
- MFC [26]: 62.5 µg/mL (≈ 138 µM)
- MIC [27]: 15.6 µg/mL (≈ 34.5 µM)
- IC50 [28]: 9800 nM
- MFC [29]: 15.6 µg/mL (≈ 34.5 µM)
- MIC [30]: 7.8 µg/mL (≈ 17.2 µM)
- MIC [31]: 62.5 µg/mL (≈ 138 µM)
- MBC [32]: 3.9 µg/mL (≈ 8.62 µM)
- MIC [33]: 31.2 µg/mL (≈ 69 µM)
- MBC [34]: 3.9 µg/mL (≈ 8.62 µM)
- MIC [35]: 7.8 µg/mL (≈ 17.2 µM)
- MIC [36]: 7.8 µg/mL (≈ 17.2 µM)
- MIC [37]: 15.6 µg/mL (≈ 34.5 µM)
- MIC [38]: 31.2 µg/mL (≈ 69 µM)
- MIC ([39]; MTCC 2470, 24 h): 15.6 µg/mL (≈ 34.5 µM)
- MFC [40]: 125 µg/mL (≈ 276 µM)
- IC50 [41]: 2800 nM
- MFC [42]: 125 µg/mL (≈ 276 µM)
- IC50 [43]: 1500 nM
- MFC [44]: 31.2 µg/mL (≈ 69 µM)
- MFC [45]: 31.2 µg/mL (≈ 69 µM)
- MIC [46]: 15.6 µg/mL (≈ 34.5 µM)
- MIC [47]: 62.5 µg/mL (≈ 138 µM)
- MFC [48]: 15.6 µg/mL (≈ 34.5 µM)
- MIC ([49]; MTCC 739, 24 h): > 125 µg/mL

SMILES: Clc1ccc(COC(Cn2ccnc2)c2ccc(Cl)cc2Cl)c(Cl)c1 (centres undefined) [MICONAZOLE]
- MFC [3]: 7.8 µg/mL (≈ 18.7 µM)
- MIC [4]: 7.8 µg/mL (≈ 18.7 µM)
- MFC [6]: 7.8 µg/mL (≈ 18.7 µM)
- MIC [8]: 7.8 µg/mL (≈ 18.7 µM)
- MIC [10]: 7.8 µg/mL (≈ 18.7 µM)
- MFC [11]: 15.6 µg/mL (≈ 37.5 µM)
- MIC [12]: inactive
- MFC [13]: 15.6 µg/mL (≈ 37.5 µM)
- MIC [14]: inactive
- MIC [16]: inactive
- MFC [18]: 7.8 µg/mL (≈ 18.7 µM)
- MFC [19]: 15.6 µg/mL (≈ 37.5 µM)
- MIC [21]: 7.8 µg/mL (≈ 18.7 µM)
- MIC [22]: inactive
- MFC [23]: 15.6 µg/mL (≈ 37.5 µM)
- MIC [24]: inactive
- MFC [26]: 7.8 µg/mL (≈ 18.7 µM)
- MIC [27]: 7.8 µg/mL (≈ 18.7 µM)
- MFC [29]: 7.8 µg/mL (≈ 18.7 µM)
- MIC [30]: 7.8 µg/mL (≈ 18.7 µM)
- MIC [31]: 7.8 µg/mL (≈ 18.7 µM)
- MIC [33]: 7.8 µg/mL (≈ 18.7 µM)
- MIC [35]: 7.8 µg/mL (≈ 18.7 µM)
- MIC [36]: 7.8 µg/mL (≈ 18.7 µM)
- MIC [37]: 7.8 µg/mL (≈ 18.7 µM)
- MIC [38]: 7.8 µg/mL (≈ 18.7 µM)
- MIC [39]: inactive
- MFC [40]: 15.6 µg/mL (≈ 37.5 µM)
- MFC [42]: 7.8 µg/mL (≈ 18.7 µM)
- MFC [44]: 7.8 µg/mL (≈ 18.7 µM)
- MFC [45]: 7.8 µg/mL (≈ 18.7 µM)
- MIC [46]: 7.8 µg/mL (≈ 18.7 µM)
- MIC [47]: 7.8 µg/mL (≈ 18.7 µM)
- MFC [48]: 15.6 µg/mL (≈ 37.5 µM)
- MIC [49]: inactive
